Target: T1, IRAK4 (Homo sapiens, UniProt Q9NWZ3)
T1 construct: purchased CARNA Bioscience 09-145
T1 sequence (Q9NWZ3 1-460): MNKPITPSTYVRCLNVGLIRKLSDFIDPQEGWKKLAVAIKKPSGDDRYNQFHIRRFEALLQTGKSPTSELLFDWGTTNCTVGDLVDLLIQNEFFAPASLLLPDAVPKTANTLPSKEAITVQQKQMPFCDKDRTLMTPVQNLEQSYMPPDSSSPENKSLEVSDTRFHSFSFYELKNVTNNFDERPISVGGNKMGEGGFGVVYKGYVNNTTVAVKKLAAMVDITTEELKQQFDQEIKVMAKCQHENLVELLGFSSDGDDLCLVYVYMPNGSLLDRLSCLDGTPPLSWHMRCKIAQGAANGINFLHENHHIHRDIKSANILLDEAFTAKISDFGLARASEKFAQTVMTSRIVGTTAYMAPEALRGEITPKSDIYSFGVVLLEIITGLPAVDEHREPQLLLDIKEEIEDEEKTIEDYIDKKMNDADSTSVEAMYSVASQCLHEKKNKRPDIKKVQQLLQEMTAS
Experiment: IRAK-4 activity inhibition assay (Caliper, Peptide 8, 37 μM ATP)
Type: biochemical
Conditions: 3.5 nM IRAK4, 1.5 μM Peptide 8, 37 μM ATP, 28° C. 40 minutes; read-out: IRAK-4 activity inhibition IC50

Row | IC50 | SMILES
1 | > 50 µM | CC(C)N[C@H]1CC[C@@H](Nc2ncnc3sc4c(c23)CCC4)CC1 [Compound I-161]
2 | < 5 µM | CN(C)[C@H]1CC[C@H](Nc2ncnc3sc4c(c23)CC(C)(C)CC4)CC1 [Compound I-40, trans-N^1-(6,6-dimethyl-5,6,7,8-tetrahydrobenzo[4,5]thieno[2,3-d]pyrimidin-4-yl)-N^4,N^4-dimethylcyclohexane-1,4-diamine]
3 | < 5 µM | CCC1CCc2c(sc3ncnc(N[C@H]4CC[C@H](N)CC4)c23)C1 (stereo partly drawn) [Compound I-39, trans-N^1-(7-ethyl-5,6,7,8-tetrahydrobenzo[4,5]thieno[2,3-d]pyrimidin-4-yl)cyclohexane-1,4-diamine]
4 | 20 to 50 µM | CC1(C)CCc2sc3ncnc(N4CCC(C(N)=O)CC4)c3c2C1 [Compound I-46]
5 | < 5 µM | Cc1sc2ncnc(N[C@H]3CC[C@H](N)CC3)c2c1C [Compound I-57, trans-N^1-(5,6-dimethylthieno[2,3-d]pyrimidin-4-yl)cyclohexane-1,4-diamine]
6 | 5 to 20 µM | O=C(O)CN[C@H]1CC[C@H](Oc2ncnc3sc4c(c23)CCC4)CC1 [Compound I-68, 2-((trans-4-((6,7-dihydro-5H-cyclopenta[4,5]thieno[2,3-d]pyrimidin-4-yl)oxy)cyclohexyl)amino)acetic acid]
7 | < 5 µM | c1nc(N[C@H]2CC[C@H](N3CCCC3)CC2)c2c3c(sc2n1)CCC3 [Compound I-142, N-((1r,4r)-4-(pyrrolidin-1-yl)cyclohexyl)-6,7-dihydro-5H-cyclopenta[4,5]thieno[2,3-d]pyrimidin-4-amine]
8 | < 5 µM | O=C(CN[C@H]1CC[C@H](Nc2ncnc3sc4c(c23)CCC4)CC1)N1CCCC1 [Compound I-134, trans-1-(pyrrolidin-1-yl)-2-[[4-([7-thia-9,11-diazatricyclo[6.4.0.0[2,6]]dodeca-1(8),2(6),9,11-tetraen-12-yl]amino)cyclohexyl]amino]ethan-1-one]
9 | 5 to 20 µM | N[C@H]1CC[C@@H](Nc2ncnc3sc4c(c23)CCC4)CC1 [Compound I-154, (1s,4s)-N1-(6,7-dihydro-5H-cyclopenta[4,5]thieno[2,3-d]pyrimidin-4-yl)cyclohexane-1,4-diamine]
10 | < 5 µM | CN(Cc1c(F)cccc1Cl)[C@H]1CC[C@H](Nc2ncnc3sc4c(c23)CCC4)CC1 [Compound I-99, 1-N-[(2-chloro-6-fluorophenyl)methyl]-1-N-methyl-4-N-[7-thia-9,11-diazatricyclo[6.4.0.0^[2,6]]dodeca-1(8),2(6),9,11-tetraen-12-yl]cyclohexane-1,4-diamine]
11 | 5 to 20 µM | C[C@@H]1CCc2sc3ncnc(N[C@H]4CC[C@H](O)CC4)c3c2C1 [Compound I-47, trans-4-(((R)-6-methyl-5,6,7,8-tetrahydrobenzo[4,5]thieno[2,3-d]pyrimidin-4-yl)amino)cyclohexanol]
12 | < 5 µM | C[C@@H]1CCc2sc3ncnc(N[C@H]4CC[C@H](N)CC4)c3c2C1 [Compound I-48, trans-N^1-((R)-6-methyl-5,6,7,8-tetrahydrobenzo[4,5]thieno[2,3-d]pyrimidin-4-yl)cyclohexane-1,4-diamine]
13 | > 50 µM | CN(C)CC1CCN(c2ncnc3sc4c(c23)CCC4)CC1 [Compound I-69]
14 | < 5 µM | OC1CCCC(Nc2ncnc3sc4c(c23)CCCC4)C1 (stereo not shown) [Compound I-5, 3-((5,6,7,8-tetrahydrobenzo[4,5]thieno[2,3-d]pyrimidin-4-yl)amino)cyclohexanol]
15 | 20 to 50 µM | c1nc(NC2CCOCC2)c2c3c(sc2n1)CCC3 [Compound I-8]
16 | < 5 µM | CN(CCc1ccccn1)[C@H]1CC[C@H](Nc2ncnc3sc4c(c23)CCC4)CC1 [Compound I-106, 1-N-methyl-1-N-[2-(pyridin-2-yl)ethyl]-4-N-[7-thia-9,11-diazatricyclo[6.4.0.0^[2,6]]dodeca-1(8),2(6),9,11-tetraen-12-yl]cyclohexane-1,4-diamine]
17 | 5 to 20 µM | FC(F)(F)CN[C@H]1CC[C@H](Nc2ncnc3sc4c(c23)CCC4)CC1 [Compound I-138, 1-N-[7-thia-9,11-diazatricyclo[6.4.0.0^[2,6]]dodeca-1(8),2(6),9,11-tetraen-12-yl]-4-N-(2,2,2-trifluoroethyl)cyclohexane-1,4-diamine]
18 | < 5 µM | CN[C@H]1CC[C@H](Nc2ncnc3sc4c(c23)CC(C)(C)CC4)CC1 [Compound I-41, trans-N^1-(6,6-dimethyl-5,6,7,8-tetrahydrobenzo[4,5]thieno[2,3-d]pyrimidin-4-yl)-N^4-methylcyclohexane-1,4-diamine]
19 | < 5 µM | c1nc(N[C@H]2CC[C@H](N3CCOCC3)CC2)c2c3c(sc2n1)CCC3 [Compound I-149, N-((1r,4r)-4-morpholinocyclohexyl)-6,7-dihydro-5H-cyclopenta[4,5]thieno[2,3-d]pyrimidin-4-amine]

Row | IC50 | SMILES
20 | < 5 µM | N[C@H]1CC[C@H](Oc2ncnc3sc4c(c23)CCC4)CC1 [Compound I-61, trans-4-((6,7-dihydro-5H-cyclopenta[4,5]thieno[2,3-d]pyrimidin-4-yl)oxy)cyclohexanamine]
21 | < 5 µM | CN(CCCc1ccccc1)[C@H]1CC[C@H](Nc2ncnc3sc4c(c23)CCC4)CC1 [Compound I-118]
22 | < 5 µM | CN(Cc1cccc(CO)c1)[C@H]1CC[C@H](Nc2ncnc3sc4c(c23)CCC4)CC1 [Compound I-165, [3-([methyl[4-([7-thia-9,11-diazatricyclo[6.4.0.0^[2,6]]dodeca-1(8),2(6),9,11-tetraen-12-yl]amino)cyclohexyl]amino]methyl)phenyl]methanol]
23 | 20 to 50 µM | CCC1CCc2c(sc3ncnc(NC4CCN(Cc5ccccc5)CC4)c23)C1 (stereo not shown) [Compound I-20]
24 | < 5 µM | CN(Cc1ccncc1Cl)[C@H]1CC[C@H](Nc2ncnc3sc4c(c23)CCC4)CC1 [Compound I-100, 1-N-[(3-chloropyridin-4-yl)methyl]-1-N-methyl-4-N-[7-thia-9,11-diazatricyclo[6.4.0.0^[2,6]]dodeca-1(8),2(6),9,11-tetraen-12-yl]cyclohexane-1,4-diamine]
25 | < 5 µM | CN(CCC(=O)O)[C@H]1CC[C@H](Nc2ncnc3sc4c(c23)CCC4)CC1 [Compound I-108, 3-[methyl[4-([7-thia-9,11-diazatricyclo[6.4.0.0^[2,6]]dodeca-1(8),2(6),9,11-tetraen-12-yl]amino)cyclohexyl]amino]propanoic acid]
26 | < 5 µM | c1ccc(CCCN[C@H]2CC[C@H](Nc3ncnc4sc5c(c34)CCC5)CC2)cc1 [Compound I-119, (1r,4r)-N1-(6,7-dihydro-5H-cyclopenta[4,5]thieno[2,3-d]pyrimidin-4-yl)-N4-(3-phenylpropyl)cyclohexane-1,4-diamine]
27 | < 5 µM | CN[C@H]1CC[C@H](Nc2ncnc3sc4c(c23)CC(C)CC4)CC1 (stereo partly drawn) [Compound I-52, trans-N^1-methyl-N4-(6-methyl-5,6,7,8-tetrahydrobenzo[4,5]thieno[2,3-d]pyrimidin-4-yl)cyclohexane-1,4-diamine]
28 | < 5 µM | CC1CCc2sc3ncnc(N[C@H]4CC[C@H](N)CC4)c3c2C1 (stereo partly drawn) [Compound I-51, trans-N^1-(6-methyl-5,6,7,8-tetrahydrobenzo[4,5]thieno[2,3-d]pyrimidin-4-yl)cyclohexane-1,4-diamine]
29 | < 5 µM | N[C@H]1CC[C@H](Nc2ncnc3sc4c(c23)CCCC4)CC1 [Compound I-49, trans-N^1-(5,6,7,8-tetrahydrobenzo[4,5]thieno[2,3-d]pyrimidin-4-yl)cyclohexane-1,4-diamine]
30 | 20 to 50 µM | CN(C(=O)Cc1cccc(Cl)c1)[C@H]1CC[C@H](Nc2ncnc3sc4c(c23)CCC4)CC1 [Compound I-102, 2-(3-chlorophenyl)-N-methyl-N-[4-([7-thia-9,11-diazatricyclo[6.4.0.0^[2,6]]dodeca-1(8),2(6),9,11-tetraen-12-yl]amino)cyclohexyl]acetamide]
31 | 5 to 20 µM | O[C@H]1CCC[C@H](Nc2ncnc3sc4c(c23)CCC4)C1 (relative stereo) [Compound I-22, trans-3-((6,7-dihydro-5H-cyclopenta[4,5]thieno[2,3-d]pyrimidin-4-yl)amino)cyclohexanol]
32 | 20 to 50 µM | O=C(O)[C@@H]1CC[C@H](Nc2ncnc3sc4c(c23)CCC4)C1 [Compound I-6]
33 | 5 to 20 µM | CCC1CCc2c(sc3ncnc(N4CCC(C(=O)NC)CC4)c23)C1 (stereo not shown) [Compound I-13]
34 | < 5 µM | CN(Cc1cccc(C(N)=O)c1)[C@H]1CC[C@H](Nc2ncnc3sc4c(c23)CCC4)CC1 [Compound I-166, 3-((((1r,4r)-4-((6,7-dihydro-5H-cyclopenta[4,5]thieno[2,3-d]pyrimidin-4-yl)amino)cyclohexyl)(methyl)amino)methyl)benzamide]
35 | 5 to 20 µM | O[C@H]1CC[C@H](Nc2ncnc3sc4c(c23)CCC4)CC1 [Compound I-7, trans-4-((6,7-dihydro-5H-cyclopenta[4,5]thieno[2,3-d]pyrimidin-4-yl)amino)cyclohexanol]
36 | < 5 µM | CCC1CCc2c(sc3ncnc(N[C@H]4CC[C@H](NC)CC4)c23)C1 (stereo partly drawn) [Compound I-58, trans-N1-(7-ethyl-5,6,7,8-tetrahydrobenzo[4,5]thieno[2,3-d]pyrimidin-4-yl)-N4-methylcyclohexane-1,4-diamine]
37 | 5 to 20 µM | CNC1CCCC(Oc2ncnc3sc4c(c23)CCC4)CC1 (stereo not shown) [Compound I-113, N-methyl-4-[7-thia-9,11-diazatricyclo[6.4.0.0^[2,6]]dodeca-1(12),2(6),8,10-tetraen-12-yloxy]cycloheptan-1-amine]
